Test results from US20210330611A1, “THERAPY FOR NEUROLOGICAL DISEASES/DISORDERS” (priority 2020, published 2021).
Read-outs that look alike come from different tables or passages of the source.

Assays:
[1] = system: fibrin- and LPS-induced microglia activation; test: cells; assay type: cell-based, rat; conditions: for inhibition at 10 µM: Rattus norvegicus
mouse BMDMs = test: ROS production (DHE) in fibrin-stimulated mouse BMDMs; assay type: cell-based; conditions: fibrin 24 h, 5 μM inhibitor, FIG. 6b
Protocol: Bone marrow—derived macrophage cultures. […]. In brief, bone-marrow cells were isolated from tibia and femur of C57BL/6 mice, Ggt1^+/+ mice or Ggt1^dwg/dwg mice and cultured in RPMI-1640 medium supplemented with 10% FBS, 1% penicillin-streptomycin (Corning), and 10 ng/ml murine M-CSF (14-8983-80, Thermo Fisher Scientific). On days 6-7, adherent BMDMs were harvested by adding PBS with 5 mM EDTA to the plates and used for assays.
Human macrophage cultures. Human peripheral blood mononuclear cells (PBMCs) were purchased from AllCells, LLC (Alameda, Calif.). To differentiate PBMC into monocyte-derived macrophages, 2×10^6 PBMC/mL were plated in RPMI-1640 media supplemented with 10% FBS, 1% penicillin-streptomycin (Corning), and 50 ng/ml human M-CSF (300-25, Peprotech) in tissue-culture treated dishes (Corning). After 24 h, non-adherent cells were removed, and adherent cells were cultivated for 7-8 additional days at 37° C. in 5% CO2 to promote their full differentiation into macrophages. Oxidant detection with DHE. Intracellular concentrations of ROS were measured using dihydroethidium (DHE) as described (9). […] The DHE fluorescence was detected at an excitation/emission wavelength of 518 nm/605 nm using a SpectraMax M5 microplate reader (Molecular Devices) with SoftMax Pro 5.2 software (Phoenix Technologies Ltd.).

GGT = GGT activity in spinal cord of MOG35-55 EAE mice; assay type: in vivo, mouse; conditions: FIG. 7e
Protocol: GGT activity assay. GGT activity was measured using the MaxDiscovery gamma-Glutamyl Transferase (GGT) Enzymatic Assay Kit (Bioo Scientific) according to the manufacturer's protocol. […]. For in vivo GGT activity assay, spinal cord tissues from the onset of MOG35-55 EAE or LPS-injected substantia nigra area at 12 h were prepared. Tissues were homogenized in 0.1 M Tris-HCl and centrifuged at 13,000 g for 30 min at 4° C. The supernatant was collected and subsequently assessed for GGT activity. The absorbance at 405 nm was detected with a SpectraMax M5 microplate reader (Molecular Devices) with SoftMax Pro 5.2 software (Phoenix Technologies Ltd.). The GGT activity in IU/1 was calculated following the manufacturer's protocol by multiplying the average increase in absorbance at 405 nm over 10 min GGT activity was also measured using a fluorescent probe, ProteoGREEN-gGlu (Goryo Chemical, Hokkaido, Japan), according to the manufacturer's protocol. Cultured BMDMs were plated on 96-well, black μ-clear-bottom microtiter plates (Greiner Bio-One) pre-coated with 25 μg/ml fibrin. […] The fluorescence intensity (excitation/emission filter pairs of 488 nm/520 nm) was measured using a SpectraMax M5 microplate reader (Molecular Devices) with SoftMax Pro 5.2 software (Phoenix Technologies).

naïve CD4+ T cells = test: Non-antigen-specific T-cell proliferation (anti-CD3/CD28); assay type: cell-based, mouse; conditions: 5, 0.5 or 0.05 μM, FIG. 14G, H
Protocol: T-cell proliferation assay. For antigen-specific T cell proliferation, näive CD4+ T cells were magnetically sorted from the TCR-transgenic 2D2 mice using naïve CD4+ T cell isolation kits (Miltenyi Biotec). […]. For non-antigen-specific T cell proliferation, naïve CD4^+ T cells were treated with acivicin and stimulated with mouse T-activator CD3/CD28 Dynabeads (Thermo Fisher Scientific) for 3 d. Cells were then fixed, permeabilized, and stained with FITC-conjugated anti-BrdU (BrdU Flow Kits, BD Biosciences).

in vitro = conditions: rat

**Q.** With N[C@H](C(=O)O)[C@@H]1CC(Cl)=NO1 [Acivicin, (2S)-2-amino-2-[(5S)-3-chloro-4,5-dihydro-1,2-oxazol-5-yl] acetic acid] as the compound, how does the “Quadrant (FIG. 5b)” value ([1]; HTS of 1907 compounds, quadrant by fibrin and LPS inhibition) read?
**A.** Its value is “Q2”.

**Q.** And the inhibition at 10 µM ([1]; Microglia, HTS hit classification, read-out: Hit)?
**A.** Its inhibition at 10 µM is over 50%.

**Q.** And the inhibition at 10 µM ([1]; hit classification in microglia HTS, read-out: Cherry-picked Hit (Suppl. Table 7))?
**A.** The inhibition at 10 µM was over 50%.

**Q.** And the “Quadrant (FIG. 5b)” value ([1]; Table 1, screen at 10 μM)?
**A.** Its value is “Q2”.

**Q.** And the “Quadrant (FIG. 5b)” value ([1]; Table 2, screen at 10 μM)?
**A.** The value was “Q2”.

**Q.** And the Activity ([1]; Table 7, fib = fibrin, LPS, tox = toxicity)?
**A.** Its Activity is “fib/LPS”.

**Q.** What about the “Quadrant (FIG. 5b)” value ([1]; quadrant by fibrin and LPS inhibition in HTS of 1907 compounds) of the same compound?
**A.** The value was “Q2”.

**Q.** What about the “ROS generation (DHE) in mouse macrophages” value (mouse BMDMs) of the same compound?
**A.** The value was “decreased”.

**Q.** What about the “GGT activity in the EAE spinal cord” value (GGT) of the same compound?
**A.** Its value is “decreased”.

**Q.** What about the “T cell proliferation (BrdU) without APCs, anti-CD3 and anti-CD28” value (naïve CD4+ T cells) of the same compound?
**A.** Its value is “only in the presence of APCs”.

**Q.** And the IC50 (in vitro)?
**A.** Its IC50 is over 20 µM.
